Patent US20090036389A1, “Polymeric Micelle Formulations of Hydrophobic Compounds and Methods” (priority 2002, published 2009)

How the values were obtained:
[1] = Drug loading of PEG-b-PCL (5000:4000) micelles, cosolvent evaporation versus dialysis; type: physicochemical

Procedure for bovine erythrocytes: EDTA-anticoagulated bovine blood was diluted in PBS, pH=7.2. The erythrocytes were separated by centrifugation for 10 min at 3000 rpm. The supernatant was removed and discarded. The packed cell volume (PCV) was washed three more times with PBS. The PCV was diluted appropriately in PBS to obtain suspensions of 8×10^7 and 1.48×10^8 cells/mL. Cell counts were preformed using an Improved Neubauer Brightline hemacytometer (depth=0.1 mm) from Hausser Scientific (Horsham, Pa.). The AmB/polymer formulations and polymer blanks were brought to room temperature and reconstituted with 1.0 mL of PBS just prior to use. 1.85 mL of the 8×10^7 cells/mL suspension was incubated at 37° C. in a shaking water bath (75 rpm) with 150 μL of AmB/polymer formulation, polymer blank containing no AmB, or PBS buffer (control) for 24 h. […] The supernatant was collected, and hemoglobin content was determined by absorbance at 542 nm. […] Percent hemolysis is reported by 100(Abss-Absb)/(Abs1-Absb) where Abss is the absorbance of the sample, Absb is the average absorbance of the buffer, and Abss is the average absorbance of the lysed samples. […]
An 8 mg/mL AmB in DMSO stock solution was prepared. […] The samples were collected over time, and percent hemolysis was determined as described above.

Compound	time-dependent hemolytic profile / onset of hemolysis (bovine erythrocytes)	% Yield of Drug ([1]; Cosolvent Evaporation)	Final Drug/Polymer Mole Ratio ([1]; Cosolvent Evaporation)	% Yield of Drug ([1]; Dialysis)	Final Drug/Polymer Mole Ratio ([1]; Dialysis)
C[C@@H]1[C@H](O)[C@@H](C)/C=C/C=C/C=C/C=C/C=C/C=C/C=C/[C@H](O[C@@H]2O[C@H](C)[C@@H](O)[C@H](N)[C@@H]2O)C[C@@H]2O[C@](O)(C[C@@H](O)C[C@@H](O)[C@H](O)CC[C@@H](O)C[C@@H](O)CC(=O)O[C@H]1C)C[C@H](O)[C@H]2C(=O)O [Free AmB, amphotericin B]	immediate hemolysis	48%	0.11	25%	0.055
CC(C)OC(=O)C(C)(C)Oc1ccc(C(=O)c2ccc(Cl)cc2)cc1 [Fenofibrate, 2-[4-(4-chlorobenzoyl)phenoxy]-2-methylpropanoic acid 1-methylethyl ester]		88%		31%	
